Measured values as given in patent publication US20140024527A1, “HERBICIDAL PYRAZINONES” (E I DU DE NEMOURS AND COMPANY, priority 2011, published 2014).

Assays:
Format in all cases: in vivo
[1] = system: barnyardgrass (Echinochloa crus-galli); assay: Test A postemergence; settings: 0 to 100 scale, 0 no effect, 100 complete control, approx. 10 days
Excerpt: (§1) Seeds of barnyardgrass (Echinochloa crus-galli), large crabgrass (Digitaria sanguinalis), giant foxtail (Setaria faberii), morningglory (Ipomoea spp.), pigweed (Amaranthus retroflexus), velvetleaf (Abutilon theophrasti), wheat (Triticum aestivum) and corn (Zea mays) were planted into a blend of loam soil and sand and treated preemergence with a directed soil spray using test chemicals formulated in a non-phytotoxic solvent mixture which included a surfactant. At the same time these species were also treated with postemergence applications of test compounds formulated in the same manner. Plants ranged in height from 2 to 10 cm and were in the one- to two-leaf stage for the postemergence treatments. Treated plants and untreated controls were maintained in a greenhouse for approximately 10 days, after which time all treated plants were compared to untreated controls and visually evaluated for injury. Plant response ratings, summarized in Table A, are based on a 0 to 100 scale where 0 is no effect and 100 is complete control.

[2] = system: corn (Zea mays); assay: Test A postemergence; settings: 0 to 100 scale, 0 no effect, 100 complete control, approx. 10 days
Excerpt: as §1

[3] = system: giant foxtail (Setaria faberii); assay: Test A postemergence; settings: 0 to 100 scale, 0 no effect, 100 complete control, approx. 10 days
Excerpt: as §1

[4] = system: large crabgrass (Digitaria sanguinalis); assay: Test A postemergence; settings: 0 to 100 scale, 0 no effect, 100 complete control, approx. 10 days
Excerpt: as §1

[5] = system: morningglory (Ipomoea spp.); assay: Test A postemergence; settings: 0 to 100 scale, 0 no effect, 100 complete control, approx. 10 days
Excerpt: as §1

[6] = system: pigweed (Amaranthus retroflexus); assay: Test A postemergence; settings: 0 to 100 scale, 0 no effect, 100 complete control, approx. 10 days
Excerpt: as §1

[7] = system: velvetleaf (Abutilon theophrasti); assay: Test A postemergence; settings: 0 to 100 scale, 0 no effect, 100 complete control, approx. 10 days
Excerpt: as §1

[8] = system: wheat (Triticum aestivum); assay: Test A postemergence; settings: 0 to 100 scale, 0 no effect, 100 complete control, approx. 10 days
Excerpt: as §1

[9] = system: wheat (Triticum aestivum); assay: Test A preemergence; settings: 0 to 100 scale, 0 no effect, 100 complete control, approx. 10 days
Excerpt: as §1

[10] = system: Italian ryegrass (Lolium multiflorum); assay: Test B postemergence; settings: scale 0 to 100
Excerpt: (§2) Seeds of plant species selected from blackgrass (Alopecurus myosuroides), downy bromegrass (Bromus tectorum), green foxtail (Setaria viridis), Italian ryegrass (Lolium multiflorum), wheat (Triticum aestivum), wild oat (Avena fatua), galium (Galium aparine), bermudagrass (Cynodon dactylon), Surinam grass (Brachiaria decumbens), cocklebur (Xanthium strumarium), corn (Zea mays), large crabgrass (Digitaria sanguinalis), woolly cupgrass (Eriochloa villosa), giant foxtail (Setaria faberii), goosegrass (Eleusine indica), johnsongrass (Sorghum halepense), kochia (Kochia scoparia), lambsquarters (Chenopodium album), morningglory (Ipomoea coccinea), yellow nutsedge (Cyperus esculentus), pigweed (Amaranthus retroflexus), ragweed (Ambrosia elatior), soybean (Glycine max), velvetleaf (Abutilon theophrasti), barley (Hordeum vulgare), canarygrass (Phalaris minor), chickweed (Stellaria media), deadnettle (Lamium amplexicaule) and windgrass (Apera spica-venti) were planted in pots containing Redi-Earth® planting medium (Scotts Company, Marysville, Ohio, USA) comprising spaghnum peat moss, vermiculite, wetting agent and starter nutrients and treated postemergence with test compounds formulated in a non-phytotoxic solvent mixture which included a surfactant. Plants ranged in height from 2 to 18 cm (1- to 4-leaf stage).
(§3) Treated plants and controls were maintained in a greenhouse for 13 to 15 days, after which time all species were compared to controls and visually evaluated. Plant response ratings, summarized in Table B, are based on a scale of 0 to 100 where 0 is no effect and 100 is complete control. A dash (-) response means no test result.

[11] = system: cocklebur (Xanthium strumarium); assay: Test B postemergence; settings: scale 0 to 100
Excerpt: as §2, §3

[12] = system: galium (Galium aparine); assay: Test B postemergence; settings: scale 0 to 100
Excerpt: as §2, §3

[13] = system: giant foxtail (Setaria faberii); assay: Test B postemergence; settings: scale 0 to 100
Excerpt: as §2, §3

[14] = system: ragweed (Ambrosia elatior); assay: Test B postemergence; settings: scale 0 to 100
Excerpt: as §2, §3

[15] = system: windgrass (Apera spica-venti); assay: Test B postemergence; settings: scale 0 to 100
Excerpt: as §2, §3

[16] = system: barnyardgrass (Echinochloa crus-galli); assay: Test B flooded paddy test; settings: Flood
Excerpt: (§4) Plant species in the flooded paddy test consisted of rice (Oryza sativa), umbrella sedge (Cyperus difformis), ducksalad (Heteranthera limosa) and barnyardgrass (Echinochloa crus-galli) grown to the 2-leaf stage for testing. At time of treatment, test pots were flooded to 3 cm above the soil surface, treated by application of test compounds directly to the paddy water, and then maintained at that water depth for the duration of the test. Treated plants and controls were maintained in a greenhouse for 13 to 15 days, after which time all species were compared to controls and visually evaluated. Plant response ratings, summarized in Table B, are based on a scale of 0 to 100 where 0 is no effect and 100 is complete control. A dash (-) response means no test result.

[17] = system: ducksalad (Heteranthera limosa); assay: Test B flooded paddy test; settings: Flood, scale 0 to 100
Excerpt: as §4

[18] = system: rice (Oryza sativa); assay: Test B flooded paddy test; settings: Flood, scale 0 to 100
Excerpt: as §4

[19] = system: umbrella sedge (Cyperus difformis); assay: Test B flooded paddy test; settings: Flood, scale 0 to 100
Excerpt: as §4

[20] = 250 g ai/ha, scale 0 to 100 (0 no effect, 100 complete control)

COCCn1c(-c2cccc(F)c2)c(Cl)nc(C(=O)C2=C(O)CCCC2=O)c1=O [Compound 4, 5-chloro-6-(3-fluorophenyl)-3-[(2-hydroxy-6-oxo-1-cyclohexen-1-yl)carbonyl]-1-(2-methoxyethyl)-2(1H)pyrazinone]
40: Plant response rating, Corn ([2]; 500 g ai/ha) | Plant response rating, Foxtail, Giant ([13]; 31 g ai/ha) | Plant response rating, Windgrass ([15]; 125 g ai/ha)
85: Plant response rating, Cocklebur ([11]; 250 g ai/ha) | Plant response rating, Ducksalad ([17]; 250 g ai/ha)
75: Plant response rating, Foxtail, Giant ([13]; 250 g ai/ha) | Plant response rating, Ragweed ([14]; 125 g ai/ha) | Plant response rating, Ducksalad ([17]; 125 g ai/ha) | Plant response rating, Sedge, Umbrella ([19]; 31 g ai/ha) | Plant response rating, Sedge, Umbrella ([19]; 62 g ai/ha) | Plant response rating, Sedge, Umbrella ([19]; 125 g ai/ha)
25: Plant response rating, Cocklebur ([11]; 62 g ai/ha)
65: Plant response rating, Cocklebur ([11]; 125 g ai/ha) | Plant response rating, Ragweed ([14]; 62 g ai/ha) | Plant response rating, Windgrass ([15]; 250 g ai/ha) | Plant response rating, Ducksalad ([17]; 62 g ai/ha)
30: Plant response rating, Foxtail, Giant ([3]; 125 g ai/ha) | Plant response rating, Windgrass ([15]; 62 g ai/ha) | Plant response rating, Barnyardgrass [16, 20] | Plant response rating, Rice ([18]; 250 g ai/ha)
70: Plant response rating, Foxtail, Giant ([3]; 500 g ai/ha) | Plant response rating, Foxtail, Giant ([13]; 125 g ai/ha)
10: Plant response rating, Wheat ([8]; 500 g ai/ha) | Plant response rating, Ryegrass, Italian ([10]; 250 g ai/ha)
60: Plant response rating, Barnyardgrass ([1]; 125 g ai/ha) | Plant response rating, Foxtail, Giant ([13]; 62 g ai/ha) | Plant response rating, Ducksalad ([17]; 31 g ai/ha)
5: Plant response rating, Cocklebur ([11]; 31 g ai/ha) | Plant response rating, Windgrass ([15]; 31 g ai/ha)
90: Plant response rating, Morningglory ([5]; 125 g ai/ha) | Plant response rating, Ragweed ([14]; 250 g ai/ha)
50: Plant response rating, Galium ([12]; 31 g ai/ha) | Plant response rating, Galium ([12]; 62 g ai/ha) | Plant response rating, Ragweed ([14]; 31 g ai/ha)
80: Plant response rating, Crabgrass, Large ([4]; 125 g ai/ha) | Plant response rating, Pigweed ([6]; 125 g ai/ha) | Plant response rating, Sedge, Umbrella ([19]; 250 g ai/ha)
0: Plant response rating, Corn ([2]; 125 g ai/ha) | Plant response rating, Wheat ([8]; 125 g ai/ha) | Plant response rating, Wheat ([9]; 125 g ai/ha) | Plant response rating, Wheat ([9]; 500 g ai/ha) | Plant response rating, Ryegrass, Italian ([10]; 31 g ai/ha) | Plant response rating, Ryegrass, Italian ([10]; 62 g ai/ha) | Plant response rating, Ryegrass, Italian ([10]; 125 g ai/ha) | Plant response rating, Barnyardgrass ([16]; 31 g ai/ha, scale 0 to 100) | Plant response rating, Barnyardgrass ([16]; 62 g ai/ha, scale 0 to 100) | Plant response rating, Barnyardgrass ([16]; 125 g ai/ha, scale 0 to 100) | Plant response rating, Rice ([18]; 31 g ai/ha) | Plant response rating, Rice ([18]; 62 g ai/ha) | Plant response rating, Rice ([18]; 125 g ai/ha)
100: Plant response rating, Barnyardgrass ([1]; 500 g ai/ha) | Plant response rating, Crabgrass, Large ([4]; 500 g ai/ha) | Plant response rating, Morningglory ([5]; 500 g ai/ha) | Plant response rating, Pigweed ([6]; 500 g ai/ha) | Plant response rating, Velvetleaf ([7]; 125 g ai/ha) | Plant response rating, Velvetleaf ([7]; 500 g ai/ha)

COCCn1c(-c2cc(F)cc(F)c2)c(Cl)nc(C(=O)C2=C(O)CCCC2=O)c1=O [Compound 6, 5-chloro-6-(3,5-difluorophenyl)-3-[(2-hydroxy-6-oxo-1-cyclohexen-1-yl)carbonyl]-1-(2-methoxyethyl)-2(1H)-pyrazinone]
0: Plant response rating, Corn ([2]; 125 g ai/ha) | Plant response rating, Wheat ([8]; 125 g ai/ha) | Plant response rating, Wheat ([9]; 125 g ai/ha) | Plant response rating, Ryegrass, Italian ([10]; 31 g ai/ha) | Plant response rating, Barnyardgrass ([16]; 31 g ai/ha, scale 0 to 100) | Plant response rating, Barnyardgrass ([16]; 62 g ai/ha, scale 0 to 100) | Plant response rating, Barnyardgrass ([16]; 125 g ai/ha, scale 0 to 100) | Plant response rating, Rice ([18]; 31 g ai/ha) | Plant response rating, Rice ([18]; 62 g ai/ha) | Plant response rating, Rice ([18]; 125 g ai/ha)
65: Plant response rating, Galium ([12]; 250 g ai/ha) | Plant response rating, Foxtail, Giant ([13]; 31 g ai/ha) | Plant response rating, Foxtail, Giant ([13]; 62 g ai/ha) | Plant response rating, Ragweed ([14]; 125 g ai/ha)
30: Plant response rating, Ducksalad ([17]; 31 g ai/ha)
98: Plant response rating, Ragweed ([14]; 250 g ai/ha)
15: Plant response rating, Ryegrass, Italian ([10]; 125 g ai/ha) | Plant response rating, Rice ([18]; 250 g ai/ha)
80: Plant response rating, Crabgrass, Large ([4]; 125 g ai/ha) | Plant response rating, Foxtail, Giant ([13]; 125 g ai/ha) | Plant response rating, Windgrass ([15]; 125 g ai/ha) | Plant response rating, Windgrass ([15]; 250 g ai/ha) | Plant response rating, Ducksalad ([17]; 250 g ai/ha)
70: Plant response rating, Pigweed ([6]; 125 g ai/ha) | Plant response rating, Ducksalad ([17]; 125 g ai/ha) | Plant response rating, Sedge, Umbrella ([19]; 62 g ai/ha)
50: Plant response rating, Foxtail, Giant ([3]; 125 g ai/ha) | Plant response rating, Cocklebur ([11]; 31 g ai/ha) | Plant response rating, Galium ([12]; 62 g ai/ha) | Plant response rating, Barnyardgrass [16, 20] | Plant response rating, Ducksalad ([17]; 62 g ai/ha)
60: Plant response rating, Galium ([12]; 125 g ai/ha) | Plant response rating, Ragweed ([14]; 62 g ai/ha) | Plant response rating, Windgrass ([15]; 31 g ai/ha) | Plant response rating, Sedge, Umbrella ([19]; 31 g ai/ha)
5: Plant response rating, Ryegrass, Italian ([10]; 62 g ai/ha)
90: Plant response rating, Barnyardgrass ([1]; 125 g ai/ha) | Plant response rating, Foxtail, Giant ([3]; 500 g ai/ha) | Plant response rating, Morningglory ([5]; 125 g ai/ha) | Plant response rating, Sedge, Umbrella ([19]; 250 g ai/ha)
40: Plant response rating, Corn ([2]; 500 g ai/ha) | Plant response rating, Galium ([12]; 31 g ai/ha) | Plant response rating, Ragweed ([14]; 31 g ai/ha)
100: Plant response rating, Barnyardgrass ([1]; 500 g ai/ha) | Plant response rating, Crabgrass, Large ([4]; 500 g ai/ha) | Plant response rating, Morningglory ([5]; 500 g ai/ha) | Plant response rating, Pigweed ([6]; 500 g ai/ha) | Plant response rating, Velvetleaf ([7]; 125 g ai/ha) | Plant response rating, Velvetleaf ([7]; 500 g ai/ha) | Plant response rating, Cocklebur ([11]; 250 g ai/ha)
45: Plant response rating, Ryegrass, Italian ([10]; 250 g ai/ha)
85: Plant response rating, Sedge, Umbrella ([19]; 125 g ai/ha)
95: Plant response rating, Cocklebur ([11]; 125 g ai/ha) | Plant response rating, Foxtail, Giant ([13]; 250 g ai/ha)
20: Plant response rating, Wheat ([8]; 500 g ai/ha) | Plant response rating, Wheat ([9]; 500 g ai/ha)
75: Plant response rating, Cocklebur ([11]; 62 g ai/ha) | Plant response rating, Windgrass ([15]; 62 g ai/ha)
